Assay results taken from article PMC5614969, “High-Affinity Functional Fluorescent Ligands for Human β-Adrenoceptors” (Scientific Reports, 2017).
Like-named read-outs stand apart in the source and are kept apart here.

How the values were obtained:
[1] = biological target: T1, β2AR-YFP fusion protein (Homo sapiens, UniProt P07550); test: Confocal imaging of living U2OS cells expressing β2AR-YFP (staining, internalization, competitive displacement, no-wash); assay type: cell-based; conditions: 90 min, 100 nM carazolol-KK114 (24), 5 nM ab118171, no washing
T1 construct: host or cells: U2OS

[2] = biological target: β2AR (Homo sapiens, UniProt P07550); test: cAMP FRET sensor assay, competitive displacement of isoprenaline by antagonists in HEK293 cells; assay type: cell-based
Protocol: The culture was maintained by subculturing the cells every 4 to 5 days using the standard trypsinization procedure. Before measurements, cells were trypsinated and transferred in a 96-well glass bottom plate (MatTek Corporation; Cat. No. P96GC-1.5–5-F) to contain 10,000–30,000 cells per well in 200 µL of DMEM media. After 24 h incubation in 5% CO2 at 37 °C, the cells were washed with HBSS pH 7.2 (200 µL), and the wells were filled with 200 µL HBSS. The DMSO stock solutions of the fluorescent probes were diluted 5,000 times in HBSS and used in experiments. In the antagonist inhibition experiment, we used β1 and β2 adrenoceptor agonist isoprenaline (abcr GmbH) as a positive control causing cAMP elevation. […] The fluorescent ligand solutions of different concentrations in HBSS were premixed with the isoprenaline solution. 50 µL of a final solution was added to each well and the measurement was started upon addition and continued for 1 h in 10 min intervals between the readouts (inclusive).
The ligands were added using an automated pipette to initiate the sensor response. FRET readout from the cAMP sensor was performed on a multiwell plate reader Spark 20 M (Tecan) at room temperature (25 °C). Fluorescence readout amplitudes were calculated from time series for different ligand concentrations, following background subtraction (media only). […] Data were derived from 3 independent experiments and each independent experiment was performed in triplicate.
Sensor response R(CFP/FRET) was calculated using (1):1 R(CFP/FRET)=(FimTurquoise−FbkgmTurquoise)/(FiFRET−FbkgFRET) where F i ^mTurquoise – mTurquoise fluorescence intensity in the wells with cells; F bkg ^mTurquoise - mTurquoise fluorescence intensity in the control wells without cells; F i ^FRET – FRET signal intensity in the wells with cells; F bkg ^FRET – FRET signal intensity in the control wells without cells. For every result, R(CFP/FRET) ratio was normalized to the R(CFP/FRET) response of DMSO sample.
K i ^app were calculated using the Cheng-Prusoff equation (2):2 Kiapp=IC50/[A]/EC50+1 where [A] – concentration of the isoprenaline; IC50 – fitted half maximal inhibitory concentration of labeled antagonist; EC50 – fitted half maximal response concentration of isoprenaline.

β2AR, sequence (P07550 whole entry): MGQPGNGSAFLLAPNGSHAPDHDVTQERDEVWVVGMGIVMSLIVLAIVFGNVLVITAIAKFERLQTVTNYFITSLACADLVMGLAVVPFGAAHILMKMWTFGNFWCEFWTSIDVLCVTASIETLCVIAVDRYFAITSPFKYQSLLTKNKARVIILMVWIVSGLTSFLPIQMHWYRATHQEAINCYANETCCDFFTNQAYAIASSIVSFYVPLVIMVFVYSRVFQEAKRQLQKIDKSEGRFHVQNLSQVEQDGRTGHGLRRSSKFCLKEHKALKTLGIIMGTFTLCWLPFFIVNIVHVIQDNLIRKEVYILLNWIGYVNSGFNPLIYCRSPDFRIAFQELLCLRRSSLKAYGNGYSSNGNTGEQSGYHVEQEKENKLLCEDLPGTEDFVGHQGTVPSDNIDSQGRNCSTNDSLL
T1 sequence (P07550 whole entry, the tested form may be a part): as the sequence (P07550 whole entry) above

**Q.** Which no-wash imaging staining [1] does the source give for `CN(CCC(=O)NCCOCCOCCOCCOCCC(=O)NCCC(C)(C)NCC(O)COc1cccc2[nH]c3ccccc3c12)C(=O)c1c(F)c(F)c(F)c(F)c1C1=c2cc3c4c(c2Oc2c1cc1c5c2CCCN5C(C)(C)C=C1CS(=O)(=O)O)CCC[N+]=4C(C)(C)C=C3CS(=O)(=O)[O-]` (centres unmarked) [Carazolol-KK114 (24)] here?
**A.** specific staining

**Q.** What about the IC50 ([2]; 17 nM isoprenaline, 30 min incubation time, read-out: IC50) of the same compound?
**A.** 444 ± 79 nM

**Q.** And the Ki ([2]; Cheng-Prusoff from IC50 right after addition of ligands, 17 nM isoprenaline, read-out: Ki app (mean ± SD))?
**A.** 162 ± 76 nM

**Q.** What about the IC50 ([2]; displacement of 17 nM isoprenaline, readout immediately after addition of ligands (0 min), read-out: IC50 (mean ± SD)) of the same compound?
**A.** 2450 ± 494 nM

**Q.** What about the Ki ([2]; measurement 30 min after addition of the ligands, read-out: Ki app) of the same compound?
**A.** 29.3 ± 15 nM
